Data reported in PubChem BioAssay AID1259407 (Chemical Carcinogenesis Research Information System (CCRIS), 2018).
Active and inactive are the calls of the source. No rule for the calls is given here.

Tested on: CCRIS mutagenicity, Ames/micronucleus/aberration tests
Assay: CCRIS mutagenicity studies
[1] = Test System: AMES SALMONELLA TYPHIMURIUM, Strain/Indicator: TA98, Metabolic Activation: NONE, Method: STANDARD PLATE
[2] = Test System: AMES SALMONELLA TYPHIMURIUM, Strain/Indicator: TA100, Metabolic Activation: NONE, Method: PREINCUBATION
[3] = Test System: AMES SALMONELLA TYPHIMURIUM, Strain/Indicator: TA100, Metabolic Activation: NONE, Method: STANDARD PLATE
[4] = Test System: AMES SALMONELLA TYPHIMURIUM, Strain/Indicator: TA102, Metabolic Activation: NONE, Method: STANDARD PLATE
[5] = Test System: AMES SALMONELLA TYPHIMURIUM, Strain/Indicator: TA98, Metabolic Activation: RAT, LIVER, S-9, AROCLOR 1254, Method: STANDARD PLATE
[6] = Test System: AMES SALMONELLA TYPHIMURIUM, Strain/Indicator: TA100, Metabolic Activation: RAT, LIVER, S-9, AROCLOR 1254, Method: STANDARD PLATE
[7] = Test System: AMES SALMONELLA TYPHIMURIUM, Strain/Indicator: TA1535, Metabolic Activation: NONE, Method: STANDARD PLATE
[8] = Test System: AMES SALMONELLA TYPHIMURIUM, Strain/Indicator: TA1535, Metabolic Activation: RAT, LIVER, S-9, AROCLOR 1254, Method: STANDARD PLATE
[9] = Test System: AMES SALMONELLA TYPHIMURIUM, Strain/Indicator: TA1537, Metabolic Activation: NONE, Method: STANDARD PLATE
[10] = Test System: AMES SALMONELLA TYPHIMURIUM, Strain/Indicator: TA1537, Metabolic Activation: RAT, LIVER, S-9, AROCLOR 1254, Method: STANDARD PLATE
[11] = Test System: AMES SALMONELLA TYPHIMURIUM, Strain/Indicator: TA1538, Metabolic Activation: NONE, Method: STANDARD PLATE
[12] = Test System: AMES SALMONELLA TYPHIMURIUM, Strain/Indicator: TA1538, Metabolic Activation: RAT, LIVER, S-9, AROCLOR 1254, Method: STANDARD PLATE

SMILES	mutagenic call [1]	mutagenic call [2]	mutagenic call [3]	mutagenic call [4]	mutagenic call [5]	mutagenic call [6]	mutagenic call [7]	mutagenic call [8]	mutagenic call [9]	mutagenic call [10]	mutagenic call [11]	mutagenic call [12]	also measured
CCCCC1C(=O)N(c2ccccc2)N(c2ccc(O)cc2)C1=O (stereo not drawn)	inactive; negative	inactive; negative	inactive; negative	inactive; negative	–	–	–	–	–	–	–	–	mutagenic call (Test System: AMES SALMONELLA TYPHIMURIUM, Strain/Indicator: TA97A, Metabolic Activation: NONE, Method: STANDARD PLATE): inactive; negative; mutagenic call (Test System: AMES SALMONELLA TYPHIMURIUM, Strain/Indicator: TA97A, Metabolic Activation: RAT LIVER S-9, PHENOBARBITAL, Method: STANDARD PLATE): inactive; negative; mutagenic call (Test System: AMES SALMONELLA TYPHIMURIUM, Strain/Indicator: TA98, Metabolic Activation: GUINEA PIG, LIVER, S-9, PCB, Method: PREINCUBATION): inactive; negative; mutagenic call (Test System: AMES SALMONELLA TYPHIMURIUM, Strain/Indicator: TA98, Metabolic Activation: HAMSTER, LIVER, S-9, PCB, Method: PREINCUBATION): inactive; negative; mutagenic call (Test System: AMES SALMONELLA TYPHIMURIUM, Strain/Indicator: TA98, Metabolic Activation: MOUSE, LIVER, S-9, PCB, Method: PREINCUBATION): inactive; negative; mutagenic call (Test System: AMES SALMONELLA TYPHIMURIUM, Strain/Indicator: TA98, Metabolic Activation: NONE, Method: PREINCUBATION): inactive; negative; mutagenic call (Test System: AMES SALMONELLA TYPHIMURIUM, Strain/Indicator: TA98, Metabolic Activation: RAT LIVER S-9, PHENOBARBITAL, Method: STANDARD PLATE): inactive; negative; mutagenic call (Test System: AMES SALMONELLA TYPHIMURIUM, Strain/Indicator: TA98, Metabolic Activation: RAT, LIVER, S-9, PCB, Method: PREINCUBATION): inactive; negative; mutagenic call (Test System: AMES SALMONELLA TYPHIMURIUM, Strain/Indicator: TA100, Metabolic Activation: GUINEA PIG, LIVER, S-9, PCB, Method: PREINCUBATION): inactive; negative; mutagenic call (Test System: AMES SALMONELLA TYPHIMURIUM, Strain/Indicator: TA100, Metabolic Activation: HAMSTER, LIVER, S-9, PCB, Method: PREINCUBATION): inactive; negative; mutagenic call (Test System: AMES SALMONELLA TYPHIMURIUM, Strain/Indicator: TA100, Metabolic Activation: MOUSE, LIVER, S-9, PCB, Method: PREINCUBATION): inactive; negative; mutagenic call (Test System: AMES SALMONELLA TYPHIMURIUM, Strain/Indicator: TA100, Metabolic Activation: RAT LIVER S-9 PHENOBARBITAL, Method: STANDARD PLATE): inactive; negative; mutagenic call (Test System: AMES SALMONELLA TYPHIMURIUM, Strain/Indicator: TA100, Metabolic Activation: RAT, LIVER, S-9, PCB, Method: PREINCUBATION): active; positive; mutagenic call (Test System: AMES SALMONELLA TYPHIMURIUM, Strain/Indicator: TA102, Metabolic Activation: RAT LIVER S-9, PHENOBARBITAL, Method: STANDARD PLATE): inactive; negative
CSc1ccc(Cl)cc1	inactive; negative	–	inactive; negative	–	inactive; negative	inactive; negative	inactive; negative	inactive; negative	inactive; negative	inactive; negative	inactive; negative	inactive; negative	–
CC[n+]1c2ccccc2nc2ccccc21	inactive; negative	–	inactive; negative	inactive; negative	active; positive	inactive; negative	–	–	–	active; positive	inactive; negative	inactive; negative	mutagenic call (Test System: AMES SALMONELLA TYPHIMURIUM, Strain/Indicator: TA2638, Metabolic Activation: NONE, Method: STANDARD PLATE): inactive; negative; mutagenic call (Test System: E. COLI, Strain/Indicator: WP2 (PKM101), Metabolic Activation: NONE, Method: STANDARD PLATE): inactive; negative; mutagenic call (Test System: E. COLI, Strain/Indicator: WP2 UVRA (PKM101), Metabolic Activation: NONE, Method: STANDARD PLATE): active; positive
CCCCN(N=O)C(N)=O	–	active; positive	–	–	–	–	active; positive	–	–	–	–	–	mutagenic call (Test System: AMES SALMONELLA TYPHIMURIUM, Strain/Indicator: TA100, Metabolic Activation: RAT, LIVER, S-9, KC500 OR PHENOBARBITAL, Method: LIQUID SUSPENSION): active; positive; mutagenic call (Test System: AMES SALMONELLA TYPHIMURIUM, Strain/Indicator: TA1535, Metabolic Activation: NONE, Method: PREINCUBATION): active; positive; mutagenic call (Test System: CHINESE HAMSTER V-79, Strain/Indicator: V-79/6-THIOGUANINE, Metabolic Activation: NONE, Method: FLASK ASSAY): active; positive; mutagenic call (Test System: CHO/HGPRT, Strain/Indicator: CHO-K1-BH4, Metabolic Activation: NONE, Method: STANDARD PLATE): active; positive; mutagenic call (Test System: E. COLI B, Strain/Indicator: H/R30R, Metabolic Activation: NONE): active; positive; mutagenic call (Test System: E. COLI B, Strain/Indicator: HS30R, Metabolic Activation: NONE): active; positive; mutagenic call (Test System: E. COLI, Strain/Indicator: WP2, Metabolic Activation: NONE, Method: STANDARD PLATE): active; positive; mutagenic call (Test System: E. COLI, Strain/Indicator: WP2 UVRA, Metabolic Activation: NONE, Method: PREINCUBATION): active; positive; mutagenic call (Test System: E. COLI, Strain/Indicator: WP2 UVRA, Metabolic Activation: NONE, Method: STANDARD PLATE): active; positive; mutagenic call (Test System: E. COLI, Strain/Indicator: WP2 UVRA, Metabolic Activation: RAT, LIVER, S-9, PHENOBARBITAL AND 5,6-BENZOFLAVONE, Method: PREINCUBATION): active; positive
CNC(=O)Nc1ccccc1	inactive; negative	–	inactive; negative	–	inactive; negative	inactive; negative	inactive; negative	inactive; negative	inactive; negative	inactive; negative	inactive; negative	inactive; negative	–
CCCCOc1cc(Br)ccc1C(=O)NOC(C)=O	–	–	active; positive	–	–	–	–	–	–	–	–	–	mutagenic call (Test System: AMES SALMONELLA TYPHIMURIUM, Strain/Indicator: TA100, Metabolic Activation: RAT, S-9, AROCLOR, Method: STANDARD PLATE): active; positive
